Source: patent US4522813A, “Cyclic hexapeptide somatostatin analogs” (Merck & Co., Inc., priority 1983, dated 1985)

Experiments:
[1] = system: portal vein glucagon; experiment: Decrease of portal vein glucagon levels in anesthetized rats; type: in vivo, rat; settings: multiple or fraction of the effect of somatostatin (=1), fiducial limits in parentheses, external jugular vein, portal vein blood after 5 minutes
Description: (§1) Analogs of somatostatin were compared to somatostatin in their ability to decrease the levels of portal vein glucagon and insulin in anesthetized rats. Male Sprague-Dawley rats (Charles River CD) weighing 160-200 g were anesthetized with urethane (150 mg/100 g of body weight; Aldrich). Saline or peptides were administered via the external jugular vein. After 5 minutes, the portal vein was exposed, and blood was collected via syringe containing 3 mg of EDTA and placed in chilled tubes containing 100 μl of Trasylol (FBA Pharmaceuticals) for subsequent hormone analysis. Plasma levels of glucagon were determined by the method of Faloona and Unger, Methods of Hormone Radioimmunoassay, Jaffe and Behrman (Eds), Academic Press, New York, Vol, II, pp. 257-527 (1976), utilizing glucagon antisera 30K obtained from R. Unger (Dallas, TX). Plasma levels of insulin were determined by a modification of the procedure of Herbert et al., J. Clin. Endocrinol. Metab., 25, 1375-1384 (1965).

[2] = system: pentagastrin evoked gastric secretion; experiment: Inhibition of pentagastrin evoked gastric secretion in the chronic fistula dog; type: in vivo; parameters: dose or concentration left out as unconfirmed; settings: infusion 0-60 min., relative to placebo trial; for Gastric Secretion & Inhibition, Acid Concentration 0-30 / Gastric Secretion & Inhibition, Vol. 0-30: interval 0-30 min; for Gastric Secretion & Inhibition, Acid Concentration 30-60 / Gastric Secretion & Inhibition, Vol. 30-60: interval 30-60 min; for Gastric Secretion & Inhibition, Acid Concentration 60-90 / Gastric Secretion & Inhibition, Vol. 60-90: interval 60-90 min; for Gastric Secretion & Inhibition, Acid Concentration 90-120 / Gastric Secretion & Inhibition, Vol. 90-120: interval 90-120 min
Description: The gastric effects of the instant cyclichexapeptide analogs of somatostatin are determined by the following procedure.
Compounds were tested for their ability to inhibit pentagastrin evoked gastric secretion in the chronic fistula dog. Female beagle dogs with a chronic gastric fistula were given pentagastrin (2.5 μg./kg./hour, i.v. from -60 to 120 min.) and gastric outputs were collected via the fistula cannula. Samples were analyzed at 30 minute intervals for volume (Ml.) and titratable acid (mEq/L) (Titration to pH 7 with 0.01N NaOH); total acid output (mEq) was calculated as the production of output volume and acid concentration. Test compounds were infused at a constant rate from 0 to 60 minutes. Data have been expressed as percent change of total acid output relative to a placebo trial in the same animals.

[3] = system: growth hormone release from rat pituitary cells; experiment: In vitro inhibition of growth hormone release, cultured rat pituitary cells; type: cell-based; settings: multiple or fraction of the effect of somatostatin (=1), fiducial limits in parentheses, 4 hours incubation
Description: The instant cyclic hexapeptide analogs of somatostatin are tested and compared with the effects of somatostatin in an in vitro test for the inhibition of growth hormone. The test is described as follows:
"Rat pituitaries were isolated according to the procedures of Vale and Grant "In vitro Pituitary Hormone Secretion Assay for Hypophysiotropic Substances" in Methods in Enzymology, Vol. XXXVII, eds. O'Malley, B. W. and Hardman, J. G. (Academic Press, Inc., New York) pp. 5-93 (1975).
After 4 days in culture, the cells were washed and incubated for 4 hours in Dulbecco-modified Eagle's medium in the presence or absence of graded doses of each analog or somatostatin. The medium was then collected for subsequent growth hormone determination by a double antibody radioimmunoassay for rat growth hormone."

[4] = system: portal vein insulin; experiment: Decrease of portal vein insulin levels in anesthetized rats; type: in vivo, rat; settings: multiple or fraction of the effect of somatostatin (=1), fiducial limits in parentheses, external jugular vein, portal vein blood after 5 minutes
Description: as §1

Compound | Glucagon Inhibition [1] | Gastric Secretion & Inhibition, Acid Concentration 0-30 [2] [%] | Gastric Secretion & Inhibition, Vol. 0-30 [2] [%] | Gastric Secretion & Inhibition, Acid Concentration 30-60 [2] [%] | Gastric Secretion & Inhibition, Vol. 30-60 [2] [%] | Gastric Secretion & Inhibition, Acid Concentration 60-90 [2] [%] | Gastric Secretion & Inhibition, Vol. 60-90 [2] [%] | Gastric Secretion & Inhibition, Acid Concentration 90-120 [2] [%] | Gastric Secretion & Inhibition, Vol. 90-120 [2] [%] | Growth Hormone Release Inhibition [3] | Insulin Inhibition [4]
C[C@H](N)C(=O)NCC(=O)N[C@H]1CSSC[C@@H](C(=O)O)NC(=O)[C@H](CO)NC(=O)[C@H]([C@@H](C)O)NC(=O)[C@H](Cc2ccccc2)NC(=O)[C@H]([C@@H](C)O)NC(=O)[C@H](CCCCN)NC(=O)[C@H](Cc2c[nH]c3ccccc23)NC(=O)[C@H](Cc2ccccc2)NC(=O)[C@H](Cc2ccccc2)NC(=O)[C@H](CC(N)=O)NC(=O)[C@H](CCCCN)NC1=O [Somatostatin] | 1 | 16 | 85 | 77 | 97 | 61 | 81 | 14 | 37 |  | 
Cyclo--(Pro--Phe--D-Trp--cis-AChxAla--Thr--Phe) | 2.2 (1.1, 4.7) | 4 | 75 | 19 | 82 | 13 | 20 | 5 | 2 | 0.5 (0.3, 0.6) | 1.4 (0.7, 2.7)
Cyclo--(Pro--Phe--D-Trp--t-D-AChxGly--Thr--Phe) | 0.07 |  |  |  |  |  |  |  |  | 0.11 | 0.07
